Test results as given in US10945972B2, “Particulate materials” (Nektar Therapeutics, priority 2002, dated 2021).
Counter-ions that a name gives are not always drawn.

Test: Aerosol analysis at 60 LPM, Turbospin (Example 11)
Experimental: The aerosol performance of a SEDS™ processed sample of bromocriptine mesylate was assessed in a unit-dose passive inhaler device (Turbospin PH & T (Italy)), at a peak inspiratory flow rate (PFIR) of 28.3 LPM and 60 LPM.

CC(C)C[C@H]1C(=O)N2CCC[C@H]2[C@]2(O)O[C@](NC(=O)[C@@H]3C=C4c5cccc6[nH]c(Br)c(c56)C[C@H]4N(C)C3)(C(C)C)C(=O)N12 [SEDS bromocriptine, bromocriptine mesylate]
aerodynamic diameter of aerosol particles: 4.2 μm
